The values below come from US20260060936A1, “INDOLIUM-BASED STABILIZERS OF HYDROPHOBIC DRUGS” (TECHNION RESEARCH & DEVELOPMENT FOUNDATION LTD., priority 2022, published 2026).

The structures appear in SMILES notation.

The test system of one series is 3T3 cells. Description: Image-based cell counting toxicity assay. Details: species or system mouse. The conditions noted are these: free drug; attributed to >5% DMSO in the medium. The method, then: Polymers toxicity assay in 2D. 3T3 Cells were seeded in 96 well plates at a 30% confluency (6000 cells per well) and allowed to adhere for 24 h. Polymers were purified with Sephadex G25 columns, nanoparticles were suspended in DDW and added to the wells. Untreated cells (control) were used to establish 100% viability. The effect on cell viability was measured with MTT (5 mg/ml, Glentham Life Sciences, UK).
In-vitro toxicity and anti-tumor efficacy experiments. First, we tested the three leading copolymers for in-vitro cytotoxicity, using mouse embryonic fibroblast cells (3T3 cells) as a non-cancerous model (FIG. 12). The copolymers were purified with Sephadex G25 columns and were serially diluted in a 96-well plate seeded with the cells. We used two separate viability assays: MTT and an image-based cell counting method using automated microscopy. In the MTT assay we found no reduction in cell viability over control, even in the highest concentration of polymers (FIG. 12, upper and middle panels). […] The cells morphology was not changed following incubation with the polymers, though at higher concentrations intracellular dark vesicles could be observed, indicating cellular uptake into the endo-lysosomal pathway (FIG. 13).

Series [1] is described as follows: DLS size, PDI and stability of copolymer-stabilized nanoparticles (Study 2). The following applies: nilotinib nanoparticles. In kind it is physicochemical. Here is the method: Preparation of nanoparticles. Drugs dissolved in DMSO (Carlo Erba, 10 mg/ml) were added under slight vortex to aqueous dye solution, buffered with 0.1M sodium bicarbonate. IR783 (Sigma-Aldrich) and the polymers' concentrations were 2 mg/ml. […] If the particles were cleaned in centrifuge, the solution was sonicated using Sonics' Vibra-cell ultrasonic processor (20% amplitude, 3 seconds pulses) until homogenous.
Characterization of nanoparticles. DLS measurements were conducted using a Zetasizer Nano ZS (Malvern Panalytical, Malvern, UK).

The nature of series [2]: Long-term stability and shelf-life of nanoparticles (size and PDI over time). The following applies: trametinib nanoparticles with different dyes; within the first 24 hours. The format is physicochemical. The method, then:
(§1) Manual preparation of nanoparticles. 100 μL of drugs dissolved in DMSO (10 mg/ml) were added under slight vortexing to 0.5 ml of 0.1 M sodium bicarbonate buffer containing 1.6 mg/ml R595 (100 μl from 10 mg/ml stock solution in 0.5 ml). For comparison with other stabilizers, the R595 was replaced with the following excipients: Pluronic F-127, sodium lauryl sulfate (SDS), carboxymethyl cellulose (CMC), α-cyclodextrin (αCD), β-cyclodextrin (βCD), βCD-SO3, and human serum albumin (HSA). All compounds were dissolved as 10 mg/ml in DDW. Further comparison of R595 with IR783/IR820 based nanoparticles was also performed in DDW. The solutions were centrifuged (30,000 g, 15 min, room temperature) and the pellet was resuspended in 1 ml of DDW. In the automation process, using the Andrew Alliance pipetting robot (Waters Corp, MA), the nanoparticles were purified using a PD-10 desalting column (Cytiva, Marlborough, MA) and 1.7 ml of eluent was collected after 2.5 ml void volume (defined by the vendor).
Characterization of nanoparticles. Dynamic light scattering (DLS) measurements were conducted using a Zetasizer Nano ZS (Malvern Panalytical, Malvern, UK).

A further series deals with HCT116. Description: Cell viability assay in 2D (anti-cancer drug-screen). In kind it is cell-based, human. Here is the method:
(§2) Cell viability assay in 2D. Cells were seeded in 96 well plates at a 30% confluency and allowed to adhere for 24 h. All drugs were dissolved in DMSO. Nanoparticles were suspended in DDW and were added to the wells after dilution with growth medium. Untreated cells (control) were used to establish 100% viability. The effect on cell viability was measured both with Promega® CellTiter-Glo® (CTG) and with images taken by the Lionheart followed by a cell count feature provided by the vendor (BioTeK).

The next series deals with KPL. The series is described as above. The format is cell-based, mice. Here is the method: as §2
A short description of series [3]: DLS size and PDI of drug nanoparticles with dye stabilizers (Study 1). The format is physicochemical. The conditions noted are these: for nanoparticle formation with IR783: stabilizer IR783; for nanoparticle formation with R595: stabilizer R595. Here is the method: as §1, with “For” for “Manual preparation of nanoparticles. 100 μL of drugs dissolved in DMSO (10 mg/ml) were added under slight vortexing to 0.5 ml of 0.1 M sodium bicarbonate buffer containing 1.6 mg/ml R595 (100 μl from 10 mg/ml stock solution in 0.5 ml). For”, “R595” left out, “vendor). Characterization of nanoparticles. Dynamic light scattering (DLS) measurements were conducted using a Zetasizer Nano ZS (Malvern Panalytical, Malvern, UK).” for “vendor).”

The subject of the next series is KPL cells. The conditions noted are these: mouse, in vivo, ip. The method, then: KRAS driven lung tumor studies. Six-weeks-old female C57BL/6J mice strain were purchased from Envigo RMS. Inducing tumors in the lung was done by injecting 10^5 KPL cells suspended in 200 μl of PBS intravenously (IV) via the tail vein. […] For efficacy studies, treatments were administered biweekly for ten weeks. For safety studies, immunohistochemistry (H&E) was done on treated mice. Animals were euthanized using CO2 inhalation. Mice were housed in air-filtered laminar flow cabinets with a 12-hr light/dark cycle and food and water ad libitum.

As for `CNC(=O)c1ccc(N2C(=S)N(c3ccc(C#N)c(C(F)(F)F)c3)C(=O)C2(C)C)cc1F` [Free enzalutamide, enzalutamide], the “toxicity in 3T3 cells” value with 3T3 cells is “slight toxicity in high concentrations”. As for `CC1(C)C(=CC=C2CCCC(C=CC3=[N+](CCCCS(=O)(=O)[O-])c4ccccc4C3(C)C)=C2Cl)N(CCCCS(=O)(=O)[O-])c2ccccc21.[Na+]` [IR783], the time to aggregation in series [1] is recorded as not above 24 h. In the case of `CC1(C)C(=CC=C2CCCC(C=CC3=[N+](CCCCS(=O)(=O)[O-])c4ccc5ccccc5c4C3(C)C)=C2Cl)N(CCCCS(=O)(=O)[O-])c2ccc3ccccc3c21.[Na+]` [IR820], the “stabilizer comparison (size and PDI)” value in series [2] is reported as “better stabilizer than IR783”. On to `CC(C)C[C@H](NC(=O)[C@H](CCc1ccccc1)NC(=O)CN1CCOCC1)C(=O)N[C@@H](Cc1ccccc1)C(=O)N[C@@H](CC(C)C)C(=O)[C@@]1(C)CO1` [carfilzomib], for which the “potency in cell viability drug-screen with 7 drugs” value in the series with HCT116 and in the series on KPL was “highest potency” each time. Consider `CCc1c2c(nc3ccc(OC(=O)N4CCC(N5CCCCC5)CC4)cc13)-c1cc3c(c(=O)n1C2)COC(=O)[C@]3(O)CC` [irinotecan], for which, in series [3], the “nanoparticle formation with IR783” value is “failed to form nanoparticles” and the “nanoparticle formation with R595” value was “formed stable nanoparticles”. Take `COc1cc2nccc(Oc3ccc(NC(=O)NC4CC4)c(Cl)c3)c2cc1C(N)=O` [lenvatinib]: in series [3], the “nanoparticle formation with IR783” value is “failed to form nanoparticles” and the “nanoparticle formation with R595” value was “formed stable nanoparticles”.

For the compound `CC(=O)Nc1cccc(-n2c(=O)n(C3CC3)c(=O)c3c(Nc4ccc(I)cc4F)n(C)c(=O)c(C)c32)c1` [trametinib], the “toxicity as observed with weight changes” value with KPL cells was “no dose limiting toxicities”.
